± gives the expanded uncertainty stated by the source.
Assay: xn = mol fraction of the nth substance listed
Details: 303 K, 101 kPa, Liquid; for speed of sound: Linear variable-path acoustic interferometer; for mass density: Pycnometric method

CC(C)=O [acetone] + Cc1ccccc1
speed of sound [m/s]
Details | x1 = 0.135 | x1 = 0.27 | x1 = 0.331 | x1 = 0.456 | x1 = 0.51 | x1 = 0.605 | x1 = 0.745 | x1 = 0.831 | x1 = 0.937
Frequency=1 MHz | 946 ± 2 | – | – | – | – | – | – | – | –
Frequency=3 MHz | 1040 ± 2 | 1032 ± 2 | 1020 ± 2 | 1000 ± 2 | 981 ± 2 | 965 ± 2 | 943 ± 2 | – | 1028 ± 2
Frequency=5 MHz | 1150 ± 2 | 1130 ± 2 | 1102 ± 2 | 1080 ± 2 | 1040 ± 2 | 1010 ± 2 | 1000 ± 2 | 1150 ± 2 | 1230 ± 2

Details | mass density [kg/m3]
x1 = 0.135 | 850 ± 1
x1 = 0.27 | 840 ± 1
x1 = 0.331 | 836 ± 1
x1 = 0.456 | 827 ± 1
x1 = 0.51 | 823 ± 1
x1 = 0.605 | 817 ± 1
x1 = 0.745 | 807 ± 1
x1 = 0.831 | 800 ± 1
x1 = 0.937 | 793 ± 1
x1 = 1 | 789 ± 1

Cc1ccccc1 [toluene] + CC(C)=O
Details | mass density [kg/m3]
x2 = 0 | 860 ± 1

— the NIST ThermoML archive (doi:10.1007/s10765-013-1527-7)
